Our source for the MIC values is ChEMBL document CHEMBL5325403, “Benzenesulfonyl thiazoloimines as unique multitargeting antibacterial agents towards Enterococcus faecalis” (Eur J Med Chem, 2023).

One may read the MIC as the least concentration at which growth counts as inhibited.

≈ marks a conversion by molar mass, not a printed value.

Holding throughout (format): functional
The test system of assay [1] is Staphylococcus aureus. Put plainly: Antibacterial activity against methicillin-resistant Staphylococcus aureus N315 assessed as inhibition of bacterial growth by continuous dilution method.
A further assay concerns Enterococcus faecalis. Put plainly: Antibacterial activity against Enterococcus faecalis assessed as inhibition of bacterial growth by continuous dilution method.
For assay [2], the system named is Staphylococcus aureus. Put plainly: Antibacterial activity against Staphylococcus aureus assessed as inhibition of bacterial growth by continuous dilution method.
Assay [3] deals with Staphylococcus aureus. In words: Antibacterial activity against Staphylococcus aureus ATCC 25923 assessed as inhibition of bacterial growth by continuous dilution method.
The subject of assay [4] is Staphylococcus aureus. In words: Antibacterial activity against Staphylococcus aureus ATCC 29213 assessed as inhibition of bacterial growth by continuous dilution method.
In the next assay the test system is Klebsiella pneumoniae. In words: Antibacterial activity against Klebsiella pneumoniae assessed as inhibition of bacterial growth by continuous dilution method.
In assay [5] the test system is Escherichia coli. Put plainly: Antibacterial activity against Escherichia coli assessed as inhibition of bacterial growth by continuous dilution method.
Assay [6] has as its system Pseudomonas aeruginosa. Put plainly: Antibacterial activity against Pseudomonas aeruginosa assessed as inhibition of bacterial growth by continuous dilution method.
For another assay, the system named is Acinetobacter baumannii. In words: Antibacterial activity against Acinetobacter baumannii assessed as inhibition of bacterial growth by continuous dilution method.
The test system of assay [7] is Pseudomonas aeruginosa. Put plainly: Antibacterial activity against Pseudomonas aeruginosa ATCC 27853 assessed as inhibition of bacterial growth by continuous dilution method.
Assay [8] relates to Escherichia coli. Put plainly: Antibacterial activity against Escherichia coli ATCC 25922 assessed as inhibition of bacterial growth by continuous dilution method.

Turning to `CC(=O)Nc1ccc(S(=O)(=O)C/C(=N/NC(=O)Cc2ccccc2)c2nccs2)cc1`, the MIC in the assay with Staphylococcus aureus [1] stood at 64 µg/mL (≈ 140 µM); in the assay on Enterococcus faecalis it was 64 µg/mL (≈ 140 µM); with Staphylococcus aureus [2], 256 µg/mL (≈ 561 µM); in the assay on Staphylococcus aureus [3], 64 µg/mL (≈ 140 µM); in the assay with Staphylococcus aureus [4] it was 256 µg/mL (≈ 561 µM); with Klebsiella pneumoniae, 128 µg/mL (≈ 280 µM). Besides, the MIC worked out at 256 µg/mL (≈ 561 µM) with Escherichia coli [5]; 256 µg/mL (≈ 561 µM) in the assay with Pseudomonas aeruginosa [6]; 256 µg/mL (≈ 561 µM) in the assay with Acinetobacter baumannii; 16 µg/mL (≈ 35 µM) in the assay with Pseudomonas aeruginosa [7]; 32 µg/mL (≈ 70.1 µM) in the assay with Escherichia coli [8].

Turning to `CCCCCCO/N=C(/CS(=O)(=O)c1ccc(N)cc1)c1nccs1`, the MIC with Staphylococcus aureus [1] is 128 µg/mL (≈ 335 µM); in the assay with Enterococcus faecalis, 8 µg/mL (≈ 21 µM); in the assay with Staphylococcus aureus [2], 32 µg/mL (≈ 83.9 µM); with Staphylococcus aureus [3] it was 64 µg/mL (≈ 168 µM); in the assay on Staphylococcus aureus [4], 64 µg/mL (≈ 168 µM); in the assay on Klebsiella pneumoniae, 32 µg/mL (≈ 83.9 µM). For the same molecule, the MIC in the assay on Escherichia coli [5] was determined as 16 µg/mL (≈ 41.9 µM); with Pseudomonas aeruginosa [6] it was 16 µg/mL (≈ 41.9 µM); with Acinetobacter baumannii, 64 µg/mL (≈ 168 µM); in the assay on Pseudomonas aeruginosa [7] it was 16 µg/mL (≈ 41.9 µM); in the assay on Escherichia coli [8] it was 16 µg/mL (≈ 41.9 µM).

With `C=CCO/N=C(/CS(=O)(=O)c1ccc(N)cc1)c1nccs1`, the MIC in the assay on Staphylococcus aureus [1] amounted to 128 µg/mL (≈ 379 µM); in the assay on Enterococcus faecalis, 16 µg/mL (≈ 47.4 µM); in the assay on Staphylococcus aureus [2], 64 µg/mL (≈ 190 µM); in the assay on Staphylococcus aureus [3], 32 µg/mL (≈ 94.8 µM); with Staphylococcus aureus [4] it was 32 µg/mL (≈ 94.8 µM); in the assay on Klebsiella pneumoniae, 32 µg/mL (≈ 94.8 µM). The MIC in the assay with Escherichia coli [5] stood at 32 µg/mL (≈ 94.8 µM); in the assay with Pseudomonas aeruginosa [6], 64 µg/mL (≈ 190 µM); with Acinetobacter baumannii it was 64 µg/mL (≈ 190 µM); with Pseudomonas aeruginosa [7], 16 µg/mL (≈ 47.4 µM); with Escherichia coli [8], 16 µg/mL (≈ 47.4 µM).

Turning to `CC(=O)Nc1ccc(S(=O)(=O)C/C(=N/Nc2ccc(C(=O)O)cc2)c2nccs2)cc1`, the MIC with Staphylococcus aureus [1] turned out to be 8 µg/mL (≈ 17.4 µM); in the assay on Enterococcus faecalis it was 16 µg/mL (≈ 34.9 µM); in the assay on Staphylococcus aureus [2], 2 µg/mL (≈ 4.36 µM); in the assay with Staphylococcus aureus [3], 32 µg/mL (≈ 69.8 µM); in the assay with Staphylococcus aureus [4] it was 32 µg/mL (≈ 69.8 µM); with Klebsiella pneumoniae it was 128 µg/mL (≈ 279 µM). In addition, the minimal inhibitory concentration (MIC) stood at 64 µg/mL (≈ 140 µM) in the assay with Escherichia coli [5]; 128 µg/mL (≈ 279 µM) with Pseudomonas aeruginosa [6]; 64 µg/mL (≈ 140 µM) with Acinetobacter baumannii; 32 µg/mL (≈ 69.8 µM) in the assay with Pseudomonas aeruginosa [7]; 32 µg/mL (≈ 69.8 µM) with Escherichia coli [8].

On to `CC(=O)Nc1ccc(S(=O)(=O)C/C(=N/OCc2ccc(Cl)cc2)c2nccs2)cc1`, for which the MIC is 32 µg/mL (≈ 69 µM) in the assay with Staphylococcus aureus [1]; 64 µg/mL (≈ 138 µM) in the assay on Enterococcus faecalis; 128 µg/mL (≈ 276 µM) with Staphylococcus aureus [2]; 64 µg/mL (≈ 138 µM) in the assay with Staphylococcus aureus [3]; 64 µg/mL (≈ 138 µM) with Staphylococcus aureus [4]; 32 µg/mL (≈ 69 µM) in the assay on Klebsiella pneumoniae. Besides, the MIC came out at 64 µg/mL (≈ 138 µM) in the assay with Escherichia coli [5]; 64 µg/mL (≈ 138 µM) in the assay with Pseudomonas aeruginosa [6]; 128 µg/mL (≈ 276 µM) with Acinetobacter baumannii; 32 µg/mL (≈ 69 µM) in the assay with Pseudomonas aeruginosa [7]; 8 µg/mL (≈ 17.2 µM) with Escherichia coli [8].

Turning to `Nc1ccc(S(=O)(=O)C/C(=N/O)c2nccs2)cc1`, the MIC is 128 µg/mL (≈ 430 µM) in the assay with Staphylococcus aureus [1]; 128 µg/mL (≈ 430 µM) in the assay with Enterococcus faecalis; 128 µg/mL (≈ 430 µM) with Staphylococcus aureus [2]; 64 µg/mL (≈ 215 µM) with Staphylococcus aureus [3]; 64 µg/mL (≈ 215 µM) in the assay with Staphylococcus aureus [4]; 64 µg/mL (≈ 215 µM) in the assay with Klebsiella pneumoniae. Also, the MIC amounted to 32 µg/mL (≈ 108 µM) with Escherichia coli [5]; 128 µg/mL (≈ 430 µM) in the assay on Pseudomonas aeruginosa [6]; 256 µg/mL (≈ 861 µM) with Acinetobacter baumannii; 64 µg/mL (≈ 215 µM) in the assay with Pseudomonas aeruginosa [7]; 16 µg/mL (≈ 53.8 µM) in the assay with Escherichia coli [8].

For the molecule `CC(=O)Nc1ccc(S(=O)(=O)/C(=C\c2ccc(Cl)cc2Cl)C(=O)c2nccs2)cc1`, the MIC in the assay on Staphylococcus aureus [1] worked out at 128 µg/mL (≈ 266 µM); in the assay with Enterococcus faecalis it was 128 µg/mL (≈ 266 µM); with Staphylococcus aureus [2], 128 µg/mL (≈ 266 µM); in the assay on Staphylococcus aureus [3], 64 µg/mL (≈ 133 µM); with Staphylococcus aureus [4], 256 µg/mL (≈ 532 µM); in the assay with Klebsiella pneumoniae it was 128 µg/mL (≈ 266 µM). Besides, the MIC with Escherichia coli [5] worked out at 256 µg/mL (≈ 532 µM); with Pseudomonas aeruginosa [6] it was 128 µg/mL (≈ 266 µM); in the assay on Acinetobacter baumannii, 256 µg/mL (≈ 532 µM); in the assay with Pseudomonas aeruginosa [7], 128 µg/mL (≈ 266 µM); in the assay on Escherichia coli [8], 256 µg/mL (≈ 532 µM).

With `Nc1ccc(S(=O)(=O)C/C(=N/OCc2ccc(Cl)cc2)c2nccs2)cc1`, the MIC in the assay on Staphylococcus aureus [1] came to 64 µg/mL (≈ 152 µM); in the assay with Enterococcus faecalis, 8 µg/mL (≈ 19 µM); in the assay on Staphylococcus aureus [2] it was 64 µg/mL (≈ 152 µM); in the assay on Staphylococcus aureus [3], 64 µg/mL (≈ 152 µM); with Staphylococcus aureus [4], 128 µg/mL (≈ 303 µM); in the assay with Klebsiella pneumoniae it was 16 µg/mL (≈ 37.9 µM). The MIC with Escherichia coli [5] was determined as 16 µg/mL (≈ 37.9 µM); with Pseudomonas aeruginosa [6] it was 64 µg/mL (≈ 152 µM); in the assay on Acinetobacter baumannii, 64 µg/mL (≈ 152 µM); with Pseudomonas aeruginosa [7], 8 µg/mL (≈ 19 µM); in the assay with Escherichia coli [8], 8 µg/mL (≈ 19 µM).

For the molecule `CC(=O)Nc1ccc(S(=O)(=O)C/C(=N/NC(=O)c2ccncc2)c2nccs2)cc1`, the MIC came out at 32 µg/mL (≈ 72.2 µM) in the assay on Staphylococcus aureus [1]; 4 µg/mL (≈ 9.02 µM) in the assay on Enterococcus faecalis; 16 µg/mL (≈ 36.1 µM) with Staphylococcus aureus [2]; 8 µg/mL (≈ 18 µM) in the assay with Staphylococcus aureus [3]; 4 µg/mL (≈ 9.02 µM) in the assay on Staphylococcus aureus [4]; 32 µg/mL (≈ 72.2 µM) in the assay with Klebsiella pneumoniae. For the same molecule, the MIC was found to be 128 µg/mL (≈ 289 µM) in the assay on Escherichia coli [5]; 8 µg/mL (≈ 18 µM) in the assay with Pseudomonas aeruginosa [6]; 32 µg/mL (≈ 72.2 µM) with Acinetobacter baumannii; 4 µg/mL (≈ 9.02 µM) with Pseudomonas aeruginosa [7]; 128 µg/mL (≈ 289 µM) in the assay with Escherichia coli [8].
